Data: patent US20100255580A1, “Differentiation of Human Embryonic Stem Cells” (LIFESCCAN, INC., priority 2007, published 2010)

System: H9 embryonic stem cells
Format: cell-based, human
Details: low serum, on MATRIGEL
Experimental: Controls for each group included cells plated on […]-coated dishes and cultured in MEF-conditioned medium or cells plated on MEFs and cultured in ES medium. All groups contained three biological replicates and each biological replicate was repeated on two separate gene chips.
Sample preparation, hybridization, and image analysis were performed according to the Affymetrix Human Genome U133 Plus 2.0 Array. Following normalization and a log transformation, data analysis was performed using OmniViz® software (MA) and […] (VizXLabs, WA). Significant differences in gene expression between the samples were evaluated using analysis of variance and an F-test with adjusted P-value (Benjamini and
Hochberg correction) of ≦b 0.05. Only genes with a present call in at least one group were included in the analysis.

Activin A: a member of the TGFβ superfamily; R&D Systems; Group 2 = Activin A (100 ng/ml)
log intensity, H2A histone family, member X: 1.371 | log intensity, H. sapiens skeletal embryonic myosin light chain 1 (MLC1): 0.6901 | log intensity, HT016 mRNA: 0.2188 | log intensity, Homo sapiens nudix (nucleoside diphosphate linked moiety X)-type motif (r1198): 3.915 | log intensity, Human DNA sequence from clone RP4-781L3 on chromosome 1p34.3-36.11: 2.828 | log intensity, Human DNA sequence from clone RP11-446H13 on chromosome 10: −0.8894 | log intensity, Human MLC1emb gene for embryonic myosin alkaline light chain, promoter and exon 1: 1.3489 | log intensity, Human clone 23826 mRNA sequence: 1.808 | log intensity, Human embryonic myosin alkali light chain (MLC1): 1.942 | log intensity, Human extracellular matrix protein 1 (ECM1): 0.6348 | log intensity, Human mRNA for pro-alpha 1 (II) collagen 3end C-term.: 0.8598 | log intensity, Human rho GDI mRNA: 0.01936 | log intensity, KIAA0127 gene product (KIAA0127): 2.052 | log intensity, KIAA0346 protein: −1.347 | log intensity, KIAA0418 gene product: −0.6776 | log intensity, KIAA0761 protein: −2.096 | log intensity, KIAA0882 protein: 2.056 | log intensity, KIAA0918 protein: −1.397 | log intensity, KIAA1415 protein: 0.1859 | log intensity, KIAA1511 protein: 0.6203 | log intensity, Kruppel-like factor 8 (KLF8): 0.3261 | log intensity, LIM homeobox protein 1 (LHX1): −0.7717 | log intensity, LYST-interacting protein LIP3: −0.6821 | log intensity, MAD (mothers against decapentaplegic, Drosophila) homolog 6 (MADH6): 0.9175 | log intensity, MYC-associated zinc finger protein (purine-binding transcription factor) (MAZ): −0.05557 | log intensity, Novel human mRNA from chromosome 22: −0.5337 | log intensity, PNAS-145 mRNA: 2.85 | log intensity, PRO1957 mRNA: 1.689 | log intensity, PTPRF interacting protein, binding protein 2 (liprin beta 2): −1.92 | log intensity, Pig10 (PIG10): 0.1295 | log intensity, SG2NA beta isoform: −1.156 | log intensity, Similar to B9 protein, clone MGC: 11339: 1.439 | log intensity, Similar to RIKEN cDNA C330013D18 gene, clone MGC: 11226: 0.08747 | log intensity, Similar to lipase protein, clone MGC: 2843: −1.161 | log intensity, X75208 H. sapiens HEK2 mRNA for protein tyrosine kinase receptor: −1.367 | log intensity, adaptor-related protein complex 3, beta 2 subunit (AP3B2): −0.2083 | log intensity, adenylate cyclase 8 (brain) (ADCY8): −1.3408 | log intensity, alpha 2,8-sialyltransferase: −1.105 | log intensity, aminolevulinate, delta-, dehydratase, clone MGC: 5057: 1.3099 | log intensity, annexin A6 (ANXA6), transcript variant 1: 3.89 | log intensity, apolipoprotein A-II (APOA2): −1.102 | log intensity, apolipoprotein C-I (APOC1): 3.25 | log intensity, arrestin, beta 1 (ARRB1), transcript variant 1: −0.1588 | log intensity, bHLH factor Hes4 (LOC57801): 0.4782 | log intensity, beta3GalNAcT-1 mRNA for globoside synthase, clone: type 2: −2.733 | log intensity, bone morphogenetic protein 2 (BMP2): 2.045 | log intensity, bone morphogenetic protein 5 (BMP5): −0.6099 | log intensity, bromodomain and PHD finger containing, 3: −2.8472 | log intensity, c-mer proto-oncogene tyrosine kinase (MERTK): 1.79 | log intensity, cDNA FLJ11390 fis, clone HEMBA1000561: −1.129 | log intensity, cDNA FLJ13221 fis, clone NT2RP4002075: 0.2828 | log intensity, cDNA FLJ13392 fis, clone PLACE1001280: −1.902 | log intensity, cDNA FLJ13810 fis, clone THYRO1000279: −2.924 | log intensity, cDNA FLJ30081 fis, clone BGGI12000693: 0.6779 | log intensity, cDNA FLJ34035 fis, clone FCBBF2004788: −3.58 | log intensity, cDNA FLJ36116 fis, clone TESTI2022338: 3.026 | log intensity, cDNA: FLJ22731 fis, clone HSI15841: −2.309 | log intensity, cDNA: FLJ22808 fis, clone KAIA2925: −0.3674 | log intensity, cDNA: FLJ23067 fis, clone LNG04993: −2.256 | log intensity, calmegin (CLGN): −0.1043 | log intensity, cardiac ankyrin repeat protein (CARP): −0.002291 | log intensity, cartilage linking protein 1: 0.8794 | log intensity, caspase-like apoptosis regulatory protein 2 (clarp): 0.4342 | log intensity, chemokine receptor CXCR4 mRNA: 2.306 | log intensity, cleft lip and palate associated transmembrane protein 1, clone MGC: 10593: 1.316 | log intensity, clone FLC1492 PRO3121 mRNA: −0.3 | log intensity, clone HB-2 mRNA sequence: −0.5039 | log intensity, clone IMAGE: 3509274, mRNA, partial cds: 0.4937 | log intensity, clone IMAGE: 4047715, mRNA: −2.508 | log intensity, clone MGC: 14801: 2.039 | log intensity, clone MGC: 24252 IMAGE: 3932604: −1.533 | log intensity, clone TUA8 Cri-du-chat region mRNA: 0.09218 | log intensity, collagen, type V, alpha 1: 1.5875 | log intensity, complement component 5 (C5): −1.896 | log intensity, core histone macroH2A2.2 (MACROH2A2): 1.673 | log intensity, cystatin C (amyloid angiopathy and cerebral hemorrhage) (CST3): 2.086 | log intensity, deiodinase, iodothyronine, type III (DIO3): −0.1369 | log intensity, dickkopf (Xenopus laevis) homolog 1 (DKK1): 0.9815 | log intensity, dual specificity phosphatase 4, clone MGC: 3713: 2.115 | log intensity, dynein, axonemal, light polypeptide 4 (DNAL4): 0.4583 | log intensity, dystrophin (muscular dystrophy, Duchenne and Becker types) (DMD), transcript variant Dp427p2: 1.404 | log intensity, ectodermal dysplasia 1, anhidrotic (ED1): 0.7966 | log intensity, elongation of very long chain fatty acids (FEN1Elo2, SUR4Elo3, yeast)-like 2 (ELOVL2): 0.09998 | log intensity, endothelin receptor type A (EDNRA), mRNA: 0.763 | log intensity, endothelin receptor type A (r1027): −1.834 | log intensity, enolase 2, (gamma, neuronal) (ENO2): 2.606 | log intensity, eomesodermin (Xenopus laevis) homolog (EOMES): 2.659 | log intensity, erythrocyte membrane protein band 4.9 (dematin) (EPB49): −0.3066 | log intensity, fasciculation and elongation protein zeta 1 (zygin I) (FEZ1), transcript variant 1: 1.864 | log intensity, forkhead box F2 (FOXF2): −1.545 | log intensity, gelsolin (amyloidosis, Finnish type) (GSN): 1.6198 | log intensity, glucose-6-phosphate transporter (G6PT) gene, G6PT-Dt allele: −0.1935 | log intensity, glutathione S-transferase A2 (GSTA2): −3.106 | log intensity, glycoprotein M6A: 0.2744 | log intensity, guanylate cyclase activator 1B (retina) (GUCA1B): −0.7142 | log intensity, heparan sulfate proteoglycan 2 (perlecan): −2.533 | log intensity, hexabrachion (tenascin C, cytotactin) (HXB): 3.969 | log intensity, high mobility group protein-R: 1.047 | log intensity, hypothetical protein BC017868 (LOC159091): −0.2902 | log intensity, hypothetical protein DKFZp434F0318: −1.115 | log intensity, hypothetical protein DKFZp434F2322: 0.07058 | log intensity, hypothetical protein DKFZp564B052: 1.478 | log intensity, hypothetical protein FLJ10312: 1.595 | log intensity, hypothetical protein FLJ11155: −3.346 | log intensity, hypothetical protein FLJ11560: −0.04411 | log intensity, hypothetical protein FLJ12538 similar to ras-related protein RAB17: 1.706 | log intensity, hypothetical protein FLJ12666 (r758): 0.2158 | log intensity, hypothetical protein FLJ12666 (r998): 2.341 | log intensity, hypothetical protein FLJ12838: 1.491 | log intensity, hypothetical protein FLJ21195 similar to protein related to DAC and cerberus: −1.385 | log intensity, hypothetical protein FLJ22471: 0.9038 | log intensity, hypothetical protein FLJ23091: −0.7609 | log intensity, hypothetical protein FLJ23514: 0.5646 | log intensity, hypothetical protein FLJ32835: −0.5956 | log intensity, hypothetical protein MGC2865, clone MGC: 20246: −2.431 | log intensity, insulin-like growth factor binding protein 6 (IGFBP6): 2.6126 | log intensity, keratin 19 (KRT19): 3.806 | log intensity, kidney-specific membrane protein NX-17: 1.919 | log intensity, lipase mRNA: −2.2131 | log intensity, lymphocyte antigen 6 complex, locus E (LY6E): 0.8664 | log intensity, mRNA for KIAA0876 protein: −0.432 | log intensity, mRNA for KIAA1161 protein: 0.7818 | log intensity, mRNA for MSX-2: 0.4072 | log intensity, mRNA for protein-tyrosine kinase: 0.161 | log intensity, mRNA; cDNA DKFZp434E082: 1.364 | log intensity, mRNA; cDNA DKFZp434K0621: 0.5814 | log intensity, mRNA; cDNA DKFZp434P228: 1.768 | log intensity, mRNA; cDNA DKFZp547H236: 1.372 | log intensity, mRNA; cDNA DKFZp564K1672: 4.494 | log intensity, mRNA; cDNA DKFZp586G2120: −1.809 | log intensity, mRNA; cDNA DKFZp586L0120: −2.726 | log intensity, mRNA; cDNA DKFZp762H185: 2.837 | log intensity, mandaselin long form: −0.1481 | log intensity, matrix metalloproteinase 15 (membrane-inserted) (MMP15): −0.2985 | log intensity, microseminoprotein, beta-(MSMB): −2.379 | log intensity, mitogen-activated protein kinase 10 (MAPK10): 0.648 | log intensity, nuclear factor of kappa light polypeptide gene enhancer in B-cells inhibitor, alpha: 2.915 | log intensity, nuclear receptor subfamily 0, group B, member 1 (NR0B1) (r534): −1.928 | log intensity, nuclear receptor subfamily 0, group B, member 1 (NR0B1) (r1079): −0.2138
